Values joined by “and” are separate entries in the source; they are usually repeats but may differ in a detail not shown here. Identical values can stand only once. Like-named read-outs stand apart in the source and are kept apart here.
Tests used:
LCN2 [1] = target: T1, LCN2 (Homo sapiens, UniProt P80188); assay: Isothermal titration calorimetry, siderophore binding to LCN2; details: ITC; for Kd / n (binding stoichiometry) / ΔH (enthalpy) / ΔS (entropy): TBS pH 7.4, 30°C; for Kd: 5 μM lipocalin
T1 construct: made in house; host or cells: E. coli K-12 BW25113 ΔentB::kan (JW0587) (λDE3), pET21a
Description: (§1) Experiments were carried out with a GE Healthcare Microcal VP-ITC microcalorimeter according to the manufacturer’s guidelines (Operating Instructions 28-9639-79 AA). The device consisted of a motorized injection syringe, in which the ligand was loaded, with two adiabatic cells set at 30 °C. The left cell was filled with the reference (TBS with 1.3% DMSO), whereas the right cell was filled with 5 μM lipocalin protein dissolved in the same buffer. […] Samples were degassed and pre-equilibrated at the desired temperature using a GE MicroCal ThermoVac degassing station before loading into the syringe, sample cell and reference cell.

Ex-FABP [2] = target: T2, Ex-FABP (Gallus gallus, UniProt P21760); assay: biochemical; assay type: binding, chicken
T2 construct: made in house; host or cells: E. coli K-12 BW25113 ΔentB::kan (JW0587) (λDE3), pET21a, periplasmic secretion
Description: as §1

Cal-γ = assay: Isothermal titration calorimetry, siderophore binding to Cal-γ; parameters: species or system chicken; details: ITC, TBS pH 7.4, 30°C, 5 μM lipocalin
Description: as §1
(§2) FIGURE 2 Interactions between lipocalins and SE siderophores. […] Data for LCN2, Fe-Ent are shown in the Supplementary Figure S2.

α-1-ovoglycoprotein = assay: Isothermal titration calorimetry, siderophore binding to α-1-ovoglycoprotein; parameters: species or system chicken; details: ITC, TBS pH 7.4, 30°C, 5 μM recombinant non-glycosylated lipocalin
Description: as §1, §2

Ex-FABP [3] = target: T2, Ex-FABP; details: TQF, ref Correnti et al., 2011, cited from earlier work; for Kd: pH 7.4
LCN2 [4] = target: T1, LCN2; details: cited from earlier work; for Kd: TQF
[5] = parameters: method as in Chart and Rowe, 1993; details: ref Chart and Rowe, 1993; cited from earlier work
LCN2 [6] = target: T1, LCN2; parameters: method as in Li et al., 2015; details: ITC, earlier report; ref Li et al., 2015; cited from earlier work

T1 sequence (P80188 with tags, fused parts or gaps): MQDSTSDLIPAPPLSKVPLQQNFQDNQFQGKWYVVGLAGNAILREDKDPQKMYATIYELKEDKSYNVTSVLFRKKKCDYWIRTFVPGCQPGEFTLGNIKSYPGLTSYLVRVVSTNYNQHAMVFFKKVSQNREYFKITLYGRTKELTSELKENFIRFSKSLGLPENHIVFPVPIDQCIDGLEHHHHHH
T2 sequence (P21760 21-178): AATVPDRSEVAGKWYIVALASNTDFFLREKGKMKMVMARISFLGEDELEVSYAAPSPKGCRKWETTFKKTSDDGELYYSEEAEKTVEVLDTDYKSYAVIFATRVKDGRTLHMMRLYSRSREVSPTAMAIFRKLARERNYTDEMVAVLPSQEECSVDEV

What does the source list for salmochelin [apo-Sal (or DGE)]?
Kd (LCN2 [1]): No binding was observed; Kd (Ex-FABP [2]; ITC, TBS pH 7.4, 30°C, 5 μM lipocalin): No interactions could be measured; Kd (Ex-FABP [2]; ITC, TBS pH 7.4, 30°C, 5 μM lipocalin, listed as apoDGE): failed to interact; Kd (Cal-γ): Under threshold; Kd (Cal-γ; listed as apoDGE): neither Cal-γ nor α-1-ovoglycoprotein bind; Kd (Cal-γ; listed as salmochelin): No interactions could be measured; Kd (α-1-ovoglycoprotein): Under threshold; Kd (α-1-ovoglycoprotein; listed as apoDGE): neither Cal-γ nor α-1-ovoglycoprotein bind; Kd (α-1-ovoglycoprotein; listed as salmochelin): No interactions could be measured; Kd (Ex-FABP [3]): Under threshold

Which “n (binding stoichiometry)” value (LCN2 [1]) does the source give for `O=C(N[C@H]1COC(=O)[C@@H](NC(=O)c2cccc(O)c2O)COC(=O)[C@@H](NC(=O)c2cccc(O)c2O)COC1=O)c1cccc(O)c1O` [apo-Ent, enterobactin] here?
Its value is 0.872.

What about the “ΔH (enthalpy)” value (LCN2 [1]) of the same compound?
The value was -27.8 kcal/mol.

And the “ΔS (entropy)” value (LCN2 [1])?
Its value is −58.9 cal/mol, K.

What about the Kd (LCN2 [1]; Kd) of the same compound?
The Kd was 58 nM and 58.4 nM.

What about the Kd (Ex-FABP [2]) of the same compound?
Its Kd is 86.2 ± 14.6 nM.

And the “n (binding stoichiometry)” value (Ex-FABP [2]; ITC, TBS pH 7.4, 30°C)?
The value was 0.617.

What about the “ΔH (enthalpy)” value (Ex-FABP [2]; ITC, TBS pH 7.4, 30°C) of the same compound?
The value was -28.3 kcal/mol.

And the “ΔS (entropy)” value (Ex-FABP [2]; ITC, TBS pH 7.4, 30°C)?
The value was −60.9 cal/mol, K.

What about the Kd (Cal-γ) of the same compound?
The Kd was “Under threshold”.

And the Kd (Cal-γ; listed as apoEnt)?
Its Kd is “neither Cal-γ nor α-1-ovoglycoprotein bind”.

And the Kd (Cal-γ; listed as enterobactin)?
Its Kd is “No interactions could be measured”.

And the Kd (α-1-ovoglycoprotein)?
The Kd was “Under threshold”.

What about the Kd (α-1-ovoglycoprotein; listed as apoEnt) of the same compound?
The Kd was “neither Cal-γ nor α-1-ovoglycoprotein bind”.

What about the Kd (α-1-ovoglycoprotein; listed as enterobactin) of the same compound?
The Kd was “No interactions could be measured”.

What about the Kd (LCN2 [4]; ref Abergel et al., 2006) of the same compound?
The Kd was 3.57 nM.

And the Kd (Ex-FABP [3]; read-out: Kd)?
Its Kd is 0.5 ± 0.15 nM.

And the “binding/affinity constant for Fe^3+ (ferric ion)” value [5]?
The value was 10^52 M^−1.

For `O=C(N[C@H]1COC(=O)[C@@H](NC(=O)c2cccc([O-])c2[O-])COC(=O)[C@@H](NC(=O)c2cccc([O-])c2[O-])COC1=O)c1cccc([O-])c1[O-].[Fe+3]` [Fe^3+-Ent], which “fold higher affinity for Fe^3+-Ent than apoEnt” value (from here on “fold higher affinity”) (LCN2 [1]) is on record?
The value was 4.9 fold.

And the “n (binding stoichiometry)” value (LCN2 [1])?
The value was 0.863.

What about the “ΔH (enthalpy)” value (LCN2 [1]) of the same compound?
The value was -26.2 kcal/mol.

What about the “ΔS (entropy)” value (LCN2 [1]) of the same compound?
The value was −50.2 cal/mol, K.

What about the Kd (LCN2 [1]; read-out: Kd) of the same compound?
The Kd was 11.8 ± 8.8 nM.

And the “fold higher affinity” value (Ex-FABP [2]; ITC)?
The value was 16 fold.

And the “n (binding stoichiometry)” value (Ex-FABP [2]; ITC, TBS pH 7.4, 30°C)?
Its value is 0.672.

And the “ΔH (enthalpy)” value (Ex-FABP [2]; ITC, TBS pH 7.4, 30°C)?
The value was -19.4 kcal/mol.

And the “ΔS (entropy)” value (Ex-FABP [2]; ITC, TBS pH 7.4, 30°C)?
Its value is −26.1 cal/mol, K.

What about the Kd (Ex-FABP [2]; ITC, TBS pH 7.4, 30°C, 5 μM lipocalin, read-out: Kd) of the same compound?
Its Kd is 5.3 ± 3.8 nM.

What about the Kd (LCN2 [6]) of the same compound?
The Kd was 240 nM.

And the Kd (LCN2 [4]; ref Fischbach et al., 2006)?
Its Kd is 0.43 nM.

And the Kd (LCN2 [4]; ref Goetz et al., 2002)?
Its Kd is 0.41 nM.

And the “fold higher affinity” value (LCN2 [4]; ref Abergel et al., 2006)?
The value was 8.7 fold.

What about the Kd (Ex-FABP [3]; read-out: Kd) of the same compound?
Its Kd is 0.22 ± 0.06 nM.

What about the “fold higher affinity” value (Ex-FABP [3]) of the same compound?
Its value is 2.3 fold.

From article PMC7242566, “The Three Lipocalins of Egg-White: Only Ex-FABP Inhibits Siderophore-Dependent Iron Sequestration by Salmonella Enteritidis” (Frontiers in Microbiology, 2020)
